One assay deals with A2780 cells. The experiment in a line: Proliferation assay A2780 (Method 3, crystal violet). The format is cell-based. Conditions: Homo sapiens, 96 h; A2780, 4 days incubation; read-out: Inhibition of A2780 cell proliferation IC50. As for the experimental part:
Cultivated tumour cells (HeLa, human cervical tumour cells, ATCC CCL-2; NCI-H460, human non-small cell lung carcinoma cells, ATCC HTB-177; A2780, human ovarian carcinoma cells, ECACC #93112519; DU 145, hormone-independent human prostate carcinoma cells, ATCC HTB-81; HeLa-MaTu-ADR, multidrug-resistant human cervical carcinoma cells, EPO-GmbH Berlin; Caco-2, human colorectal carcinoma cells, ATCC HTB-37; B16F10, mouse melanoma cells, ATCC CRL-6475) were plated at a density of 5,000 cells/well (DU145, HeLa-MaTu-ADR), 3,000 cells/well (NCI-H460, HeLa), 2,500 cells/well (A2780), 1,500 cells/well (Caco-2), or 1,000 cells/well (B16F10) in a 96-well multititer plate in 200 μL of their respective growth medium supplemented 10% fetal calf serum. […] Cell proliferation was determined by staining the cells with crystal violet: the cells were fixed by adding 20 μl/measuring point of an 11% glutaric aldehyde solution for 15 minutes at room temperature. […] The extinction was determined by photometry at a wavelength of 595 nm. The change of cell number, in percent, was calculated by normalization of the measured values to the extinction values of the zero-point plate (=0%) and the extinction of the untreated (0 μm) cells (=100%). […]

In a further assay the test system is DU145 cells. The experiment in a line: Proliferation assay DU145 (Method 3, crystal violet). Particulars: Homo sapiens, DU-145, 96 h; DU145, 4 days incubation; read-out: Inhibition of DU145 cell proliferation IC50. The format is cell-based. The method, then:
Cultivated tumour cells (HeLa, human cervical tumour cells, ATCC CCL-2; NCI-H460, human non-small cell lung carcinoma cells, ATCC HTB-177; A2780, human ovarian carcinoma cells, ECACC #93112519; DU 145, hormone-independent human prostate carcinoma cells, ATCC HTB-81; HeLa-MaTu-ADR, multidrug-resistant human cervical carcinoma cells, EPO-GmbH Berlin; Caco-2, human colorectal carcinoma cells, ATCC HTB-37; B16F10, mouse melanoma cells, ATCC CRL-6475) were plated at a density of 5,000 cells/well (DU145, HeLa-MaTu-ADR), 3,000 cells/well (NCI-H460, HeLa), 2,500 cells/well (A2780), 1,500 cells/well (Caco-2), or 1,000 cells/well (B16F10) in a 96-well multititer plate in 200 μL of their respective growth medium supplemented 10% fetal calf serum. After 24 hours, the cells of one plate (zero-point plate) were stained with crystal violet (see below), while the medium of the other plates was replaced by fresh culture medium (200 μl), to which the test substances were added in various concentrations (0 μM, as well as in the range of 0.001-10 μM; the final concentration of the solvent dimethyl sulfoxide was 0.5%). The cells were incubated for 4 days in the presence of test substances. Cell proliferation was determined by staining the cells with crystal violet: the cells were fixed by adding 20 μl/measuring point of an 11% glutaric aldehyde solution for 15 minutes at room temperature. After three washing cycles of the fixed cells with water, the plates were dried at room temperature. The cells were stained by adding 100 μl/measuring point of a 0.1% crystal violet solution (pH 3.0). After three washing cycles of the stained cells with water, the plates were dried at room temperature. The dye was dissolved by adding 100 μl/measuring point of a 10% acetic acid solution. The extinction was determined by photometry at a wavelength of 595 nm. The change of cell number, in percent, was calculated by normalization of the measured values to the extinction values of the zero-point plate (=0%) and the extinction of the untreated (0 μm) cells (=100%). […]

The test system of a further assay is NCI-H460 cells. The experiment in a line: Proliferation assay NCI-H460 (Method 3, crystal violet). The format is cell-based. Conditions: Homo sapiens, 96 h; NCI-H460, 4 days incubation; read-out: Inhibition of NCI-H460 cell proliferation IC50. As for the experimental part:
Cultivated tumour cells (HeLa, human cervical tumour cells, ATCC CCL-2; NCI-H460, human non-small cell lung carcinoma cells, ATCC HTB-177; A2780, human ovarian carcinoma cells, ECACC #93112519; DU 145, hormone-independent human prostate carcinoma cells, ATCC HTB-81; HeLa-MaTu-ADR, multidrug-resistant human cervical carcinoma cells, EPO-GmbH Berlin; Caco-2, human colorectal carcinoma cells, ATCC HTB-37; B16F10, mouse melanoma cells, ATCC CRL-6475) were plated at a density of 5,000 cells/well (DU145, HeLa-MaTu-ADR), 3,000 cells/well (NCI-H460, HeLa), 2,500 cells/well (A2780), 1,500 cells/well (Caco-2), or 1,000 cells/well (B16F10) in a 96-well multititer plate in 200 μL of their respective growth medium supplemented 10% fetal calf serum. After 24 hours, the cells of one plate (zero-point plate) were stained with crystal violet (see below), while the medium of the other plates was replaced by fresh culture medium (200 μl), to which the test substances were added in various concentrations (0 μM, as well as in the range of 0.001-10 μM; the final concentration of the solvent dimethyl sulfoxide was 0.5%). The cells were incubated for 4 days in the presence of test substances. Cell proliferation was determined by staining the cells with crystal violet: the cells were fixed by adding 20 μl/measuring point of an 11% glutaric aldehyde solution for 15 minutes at room temperature. After three washing cycles of the fixed cells with water, the plates were dried at room temperature. The cells were stained by adding 100 μl/measuring point of a 0.1% crystal violet solution (pH 3.0). After three washing cycles of the stained cells with water, the plates were dried at room temperature. The dye was dissolved by adding 100 μl/measuring point of a 10% acetic acid solution. The extinction was determined by photometry at a wavelength of 595 nm. The change of cell number, in percent, was calculated by normalization of the measured values to the extinction values of the zero-point plate (=0%) and the extinction of the untreated (0 μm) cells (=100%). The IC50 values (inhibitory concentration at 50% of maximal effect) were determined by means of a 4 parameter fit.

A further assay concerns the target T1, CDK9/CycT1 (Homo sapiens, UniProt P50750).
T1 construct: Recombinant full-length His-tagged human CDK9 and CycT1; His; purchased Invitrogen PV4131; host or cells: insect cells
As to the kind of experiment: CDK9/CycT1 kinase assay (Method 1a, TR-FRET). The class given is biochemical. Conditions: 10 μM ATP; for pIC50: Method 1a; for Selectivity CDK9 over CDK2: IC50 (CDK2)/IC50 (CDK9): Methods 1a and 2a. The source says:
1a. CDK9/CycT1 Kinase Assay:
CDK9/CycT1-inhibitory activity of compounds of the present invention was quantified employing the CDK9/CycT1 TR-FRET assay as described in the following paragraphs:
Recombinant full-length His-tagged human CDK9 and CycT1, expressed in insect cells and purified by Ni-NTA affinity chromatography, were purchased from Invitrogen (Cat. No PV4131). As substrate for the kinase reaction biotinylated peptide biotin-Ttds-YISPLKSPYKISEG (C-terminus in amid form) was used which can be purchased e.g. form the company JERINI Peptide Technologies (Berlin, Germany). For the assay 50 nl of a 100 fold concentrated solution of the test compound in DMSO was pipetted into a black low volume 384 well microtiter plate (Greiner Bio-One, Frickenhausen, Germany), 2 μl of a solution of CDK9/CycT1 in aqueous assay buffer [50 mM Tris/HCl pH 8.0, 10 mM MgCl2, 1.0 mM dithiothreitol, 0.1 mM sodium ortho-vanadate, 0.01% (v/v) Nonidet-P40 (Sigma)] were added and the mixture was incubated for 15 min at 22° C. to allow pre-binding of the test compounds to the enzyme before the start of the kinase reaction. Then the kinase reaction was started by the addition of 3 μl of a solution of adenosine-tri-phosphate (ATP, 16.7 μM=> final conc. in the 5 μl assay volume is 10 μM) and substrate (1.67 μM=> final conc. in the 5 μl assay volume is 1 μM) in assay buffer and the resulting mixture was incubated for a reaction time of 25 min at 22° C. The concentration of CDK9/CycT1 was adjusted depending of the activity of the enzyme lot and was chosen appropriate to have the assay in the linear range, typical concentrations were in the range of 1 μg/mL. The reaction was stopped by the addition of 5 μl of a solution of TR-FRET detection reagents (0.2 μM streptavidine-XL665 [Cisbio Bioassays, Codolet, France] and 1 nM anti-RB(pSer807/pSer811)-antibody from BD Pharmingen [#558389] and 1.2 nM LANCE EU-W1024 labeled anti-mouse IgG antibody [Perkin-Elmer, product no. AD0077]) in an aqueous EDTA-solution (100 mM EDTA, 0.2% (w/v) bovine serum albumin in 100 mM HEPES/NaOH pH 7.0).
The resulting mixture was incubated 1 h at 22° C. to allow the formation of complex between the phosphorylated biotinylated peptide and the detection reagents. Subsequently the amount of phosphorylated substrate was evaluated by measurement of the resonance energy transfer from the Euchelate to the streptavidine-XL. Therefore, the fluorescence emissions at 620 nm and 665 nm after excitation at 350 nm was measured in a HTRF reader, e.g. a Rubystar (BMG Labtechnologies, Offenburg, Germany) or a Viewlux (Perkin-Elmer). The ratio of the emissions at 665 nm and at […] was taken as the measure for the amount of phosphorylated substrate. The data were normalised (enzyme reaction without inhibitor=0% inhibition, all other assay components but no enzyme=100% inhibition).

pIC50: −log10 of the molar value.

The text below walks through data of patent US9902716B2, “Fluorinated benzofuranyl-pyrimidine derivatives containing a sulfone group” (Bayer Pharma Aktiengesellschaft, priority 2014, dated 2018).

T1 sequence (P50750 whole entry): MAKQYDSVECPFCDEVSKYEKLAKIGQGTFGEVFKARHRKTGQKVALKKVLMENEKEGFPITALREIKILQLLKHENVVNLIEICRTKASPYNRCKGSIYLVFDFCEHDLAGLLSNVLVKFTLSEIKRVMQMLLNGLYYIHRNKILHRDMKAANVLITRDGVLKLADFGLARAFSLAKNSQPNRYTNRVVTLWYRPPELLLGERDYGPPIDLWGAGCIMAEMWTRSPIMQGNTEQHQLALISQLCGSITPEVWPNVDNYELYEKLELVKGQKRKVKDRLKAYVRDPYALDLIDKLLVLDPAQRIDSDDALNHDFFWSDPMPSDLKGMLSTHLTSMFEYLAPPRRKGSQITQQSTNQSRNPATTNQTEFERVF
T1 sequence (O60563 whole entry partner): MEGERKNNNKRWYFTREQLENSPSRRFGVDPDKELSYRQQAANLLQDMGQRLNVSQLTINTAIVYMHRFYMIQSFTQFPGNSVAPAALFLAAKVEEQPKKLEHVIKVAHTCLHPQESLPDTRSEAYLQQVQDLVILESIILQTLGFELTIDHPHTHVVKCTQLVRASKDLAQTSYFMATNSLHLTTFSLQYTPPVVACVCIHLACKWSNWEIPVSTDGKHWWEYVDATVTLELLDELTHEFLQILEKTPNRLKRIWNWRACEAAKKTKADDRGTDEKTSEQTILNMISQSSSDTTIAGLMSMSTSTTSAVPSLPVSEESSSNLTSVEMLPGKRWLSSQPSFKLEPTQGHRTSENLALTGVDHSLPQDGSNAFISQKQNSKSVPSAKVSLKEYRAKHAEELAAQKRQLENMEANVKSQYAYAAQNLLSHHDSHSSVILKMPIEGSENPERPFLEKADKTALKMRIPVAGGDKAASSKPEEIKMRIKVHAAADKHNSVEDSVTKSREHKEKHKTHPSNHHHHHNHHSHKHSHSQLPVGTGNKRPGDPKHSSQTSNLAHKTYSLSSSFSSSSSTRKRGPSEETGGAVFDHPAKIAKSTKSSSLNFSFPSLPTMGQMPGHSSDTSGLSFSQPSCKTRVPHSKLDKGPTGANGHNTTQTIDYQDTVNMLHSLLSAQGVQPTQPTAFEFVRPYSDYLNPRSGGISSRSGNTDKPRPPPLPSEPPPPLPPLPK

As to `CS(=O)(=O)Cc1cccc(Nc2ncc(F)c(-c3ccc(F)c4ccoc34)n2)c1` [Example 1, 5-Fluoro-4-(4-fluoro-1-benzofuran-7-yl)-N-{3-[(methylsulfonyl)methyl]-phenyl}pyrimidin-2-amine], the pIC50 in the assay on A2780 cells was 7.05; in the assay with DU145 cells, 6.44; in the assay on NCI-H460 cells, 6.48; against CDK9/CycT1, 8.40. Also, at CDK9/CycT1, the “Selectivity CDK9 over CDK2: IC50 (CDK2)/IC50 (CDK9)” value (from here on “Selectivity CDK9 over CDK2: IC50”) stood at 44.

On to `CCS(=O)(=O)Cc1cccc(Nc2ncc(F)c(-c3ccc(F)c4ccoc34)n2)c1` [Example 2, N-{3-[(Ethylsulfonyl)methyl]phenyl}-5-fluoro-4-(4-fluoro-1-benzofuran-7-yl)pyrimidin-2-amine], for which the pIC50 in the assay with NCI-H460 cells was 6.94; against CDK9/CycT1 it was 8.52. The “Selectivity CDK9 over CDK2: IC50” value at CDK9/CycT1 is on record as 37.

On to `CS(=O)(=O)Cc1cc(F)cc(Nc2ncc(F)c(-c3ccc(F)c4ccoc34)n2)c1` [Example 3], for which the results for the pIC50 in the assay with DU145 cells, in the assay on NCI-H460 cells and on CDK9/CycT1 were 6.53, 6.64 and 8.70, respectively.

Consider `Cc1cc(CS(C)(=O)=O)cc(Nc2ncc(F)c(-c3ccc(F)c4ccoc34)n2)c1` [Example 4, 5-Fluoro-4-(4-fluoro-1-benzofuran-7-yl)-N-{3-methyl-5-[(methylsulfonyl)methyl]-phenyl}pyrimidin-2-amine], for which the pIC50 in the assay on A2780 cells was 7.42; in the assay on DU145 cells, 6.63; with NCI-H460 cells, 6.84; at CDK9/CycT1 it was 8.70. Further, the “Selectivity CDK9 over CDK2: IC50” value on CDK9/CycT1 is given as 29.
